Reference: patent publication EP0013144A1, “Substituted diphenylamine derivatives, compositions and herbicidal uses thereof, and processes for their preparation” (ICI AUSTRALIA LIMITED, priority 1978, dated 1980)

Legend:
Assay type in all cases: in vivo
Rice [1] = test: Pre-emergence herbicidal test, fibre trays (Example 33); conditions: 2.0 kg/ha, after 21 days
Protocol: (§1) The compounds were formulated for test by mixing an appropriate amount with 5 ml of an emulsion prepared by diluting 160 ml of a solution containing 21.S g per litre of "Span" 80 and 78.2 g per litre of "Tween" 20 in methylcyclohexanone to 500 ml with water. "Span" 80 is a Trade Mark for a surface-active agent comprising sorbitan monolaurate. "Tween" 20 is a Trade Mark for a surface-active agent comprising a condensate of sorbitan monolaurate with 20 molar proportions of ethylene oxide. Each 5 ml emulsion containing a test compound was'then diluted to 40 ml with water and sprayed on to young pot plants (post-emergence test) of the species named in Table 5 below. Damage to test plants was assessed after 14 days on a scale of 0 to 5 where 0 is 0 to 20% damage and 5 is complete kill. In a test for pre-emergence herbicidal activity, seeds of the test plants were sown in a shallow slit formed in the surface of soil in fibre trays. The surface was then levelled and sprayed, and fresh soil then spread thinly over the sprayed surface. Assessment of herbicidal damage was carried out after 21 days using the same scale of 0 to 5 as the post-emergence test. In both cases the degree of herbicidal damage was assessed by comparison with untreated control plants. A dash (-) means that no experiment was carried out.

Rice [2] = test: Post-emergence herbicidal test, young pot plants (Example 33); conditions: 2.0 kg/ha, after 14 days
Protocol: as §1

Maize [3] = test: as above; conditions: 2.0 kg/ha, after 14 days
Protocol: as §1

Maize [4] = test: Pre-emergence herbicidal test, fibre trays (Example 33); parameters: key: 0 = 0-20% damage, 5 = complete kill, vs untreated control; conditions: 2.0 kg/ha, after 21 days
Protocol: as §1

Soy bean [5] = test: as above; conditions: 2.0 kg/ha, after 21 days
Protocol: as §1

Rape [6] = test: as above; conditions: 2.0 kg/ha, after 21 days
Protocol: as §1

Sugar beet [7] = test: as above; conditions: 2.0 kg/ha, after 21 days
Protocol: as §1

Cotton [8] = test: as above; conditions: 2.0 kg/ha, after 21 days
Protocol: as §1

Senecio vulgaris [9] = test: as above; conditions: 2.0 kg/ha, after 21 days
Protocol: as §1

Winter wheat [10] = test: as above; conditions: 2.0 kg/ha, after 21 days
Protocol: as §1

Ipomea purpurea = test: Post-emergence herbicidal test, young pot plants (Example 33); conditions: 2.0 kg/ha, after 14 days
Protocol: as §1

Polygonum aviculare = test: as above; conditions: 2.0 kg/ha, after 14 days
Protocol: as §1

Amaranthus retroflexus = test: as above; conditions: 2.0 kg/ha, after 14 days
Protocol: as §1

Soy bean [11] = test: as above; conditions: 2.0 kg/ha, after 14 days
Protocol: as §1

Rape [12] = test: as above; conditions: 2.0 kg/ha, after 14 days
Protocol: as §1

Sugar beet [13] = test: as above; conditions: 2.0 kg/ha, after 14 days
Protocol: as §1

Chenopodium album = test: as above; conditions: 2.0 kg/ha, after 14 days
Protocol: as §1

Cotton [14] = test: as above; conditions: 2.0 kg/ha, after 14 days
Protocol: as §1

Senecio vulgaris [15] = test: as above; conditions: 2.0 kg/ha, after 14 days
Protocol: as §1

Winter wheat [16] = test: as above; parameters: key: 0 = 0-20% damage, 5 = complete kill, vs untreated control; conditions: 2.0 kg/ha, after 14 days
Protocol: as §1

Ryegrass [17] = test: Post-emergence herbicidal activity (Example 32); conditions: 3 weeks after spraying
Protocol: (§2) Concentrated formulations of the compounds of the invention were prepared by: • a) in the case of oils and waxy solids, dissolving the compound in toluene containing 7% v/v "Teric" N13 ("Teric" is a Trade MarK and "Teric" N13, a product of ethoxylation of nonylphenol, is available from ICI Australia Limited) and 3% v/v "Kemmat" SC15B ("Kemmat" is a Trade Mark and "Kemmat" SC15B is a formulation of calcium dodecylbenzene sulfonate); or • b) in the case of crystalline solids, adding 5 parts by weight of the compound and 1 part by weight of . ''Dyapol" PT ("Dyapol" is a Trade Mark and "Dyapol" PT is an anionic suspending agent) to 94 parts by weight of an aqueous solution containing 0.25% v/v of "Teric" N8 (a product of ethoxylation of nonylphenol) and ball-milling the mixture to produce a stable suspension. The emulsifiable concentrates and suspensions were then diluted with water to give an aqueous composition of the required concentration suitable for use in the evaluation of the pre-emergence and post-emergence herbicidal activity of the compounds of the invention.
(§3) The post-emergent herbicidal activity of the compounds of the invention formulated as described in Example 30 was assessed by the following procedure.
(§4) The seeds of the test species were sown in rows 2 cm deep in soil contained in seed boxes. The monocotyledonous plants and the dicotyledonous plants were sown in separate seed boxes in duplicate. The four seed boxes were placed in a glasshouse, lightly watered with an overhead spray to initiate germination and then sub-irrigated as required for optimum plant growth. After the plants had grown to a height of about 10 to 12.5 cm one box of each of the monocotyledonous plants and the dicotyledonous plants was removed from the glasshouse and sprayed with the required quantity of a composition of the invention. After spraying the boxes were returned to the glasshouse for further 3 weeks and the effects of the treatment was visually assessed by comparison with the untreated controls. The results are presented in Table 4 where the damage to plants is rated on a scale of from 0 to 3 where 0 represents 0 to 25% damage, 3 represents 75 to 99% kill and 3+ represents 100% kill. A dash (-) means that no experiment was carried out.

Ipomea [18] = test: Post-emergence herbicidal activity (Example 32); conditions: 3 weeks after spraying
Protocol: as §2, §3, §4

Japanese millet [19] = test: Post-emergence herbicidal activity (Example 32); conditions: 3 weeks after spraying
Protocol: as §2, §3, §4

Wild Oats [20] = test: Post-emergence herbicidal activity (Example 32); conditions: 3 weeks after spraying
Protocol: as §2, §3, §4

Mustard [21] = test: Post-emergence herbicidal activity (Example 32); conditions: 3 weeks after spraying
Protocol: as §2, §3, §4

Sunflower [22] = test: Post-emergence herbicidal activity (Example 32); conditions: 3 weeks after spraying
Protocol: as §2, §3, §4

Ryegrass [23] = test: Pre-emergence herbicidal activity (Example 31); parameters: key: 0-3 scale: 0 = 0-25% damage, 3 = 75-99% kill, 3+ = 100% kill; conditions: after three weeks
Protocol: as §2
(§5) The pre-emergent herbicidal activity of the compounds of the invention formulated as described in Example 30 was assessed by the following procedure.
(§6) The seeds of the test species were sown in rows 2 cm deep in soil contained in seed boxes. The monocotyledonous plants and the dicotyledonous plants were sprayed with the required quantity of a composition of the invention. Two duplicate seed Doxes were prepared in the same manner but were not sprayed with a composition of the invention and were used for comparison purposes. All the boxes were placed in a glasshouse, lightly watered with an overhead spray to initiate germination and then sub-irrigated as required for optimum plant growth. After three weeks the boxes were removed from the glasshouse and the effect of the treatment was visually assessed. The results are presented in Table 3 where the damage to plants is rated on a scale of from 0 to 3 where 0 represents from 0 to 25% damage, 3 represents 75 to 99% kill and 3+ represents 100% kill.
(§7) A dash (-) means that no experiment was carried out.

Wheat [24] = test: Pre-emergence herbicidal activity (Example 31); parameters: key: 0-3 scale: 0 = 0-25% damage, 3 = 75-99% kill, 3+ = 100% kill; conditions: after three weeks
Protocol: as §2, §5, §6, §7

Wheat [25] = test: Post-emergence herbicidal activity (Example 32); parameters: key: 0-3 scale: 0 = 0-25% damage, 3 = 75-99% kill, 3+ = 100% kill; conditions: 3 weeks after spraying
Protocol: as §2, §3, §4

Ipomea [26] = test: Pre-emergence herbicidal activity (Example 31); conditions: after three weeks
Protocol: as §2, §5, §6, §7

Japanese millet [27] = test: Pre-emergence herbicidal activity (Example 31); conditions: after three weeks
Protocol: as §2, §5, §6, §7

Wild Oats [28] = test: Pre-emergence herbicidal activity (Example 31); conditions: after three weeks
Protocol: as §2, §5, §6, §7

Mustard [29] = test: Pre-emergence herbicidal activity (Example 31); conditions: after three weeks
Protocol: as §2, §5, §6, §7

Sunflower [30] = test: Pre-emergence herbicidal activity (Example 31); conditions: after three weeks
Protocol: as §2, §5, §6, §7

COC(=O)C(C)Oc1ccc(Nc2ccc(Cl)cc2)cc1 (stereo not drawn) [Compound 12, Methyl 2-[4-(4-chloroanilino)prienoxy]propionate]
herbicidal damage, Rc (Rice [1]): 0 (0 is 0 to 20% damage) | damage to test plants, Rc (Rice [2]): 0 (0 is 0 to 20% damage) | damage to test plants, Mz (Maize [3]): 2 | herbicidal damage, Mz (Maize [4]): 0 (0 is 0 to 20% damage) | herbicidal damage, Sy (Soy bean [5]): 1 | herbicidal damage, Rp (Rape [6]): 1 | herbicidal damage, Sb (Sugar beet [7]): 2 | herbicidal damage, Ct (Cotton [8]): 1 | herbicidal damage, Sn (Senecio vulgaris [9]): 0 (0 is 0 to 20% damage) | herbicidal damage, Ww (Winter wheat [10]): 0 (0 is 0 to 20% damage) | damage to test plants, Ip (Ipomea purpurea): 0 (0 is 0 to 20% damage) | damage to test plants, Pi (Polygonum aviculare): 0 (0 is 0 to 20% damage) | damage to test plants, Am (Amaranthus retroflexus): 2 | damage to test plants, Sy (Soy bean [11]): 0 (0 is 0 to 20% damage) | damage to test plants, Rp (Rape [12]): 0 (0 is 0 to 20% damage) | damage to test plants, Sb (Sugar beet [13]): 1 | damage to test plants, Ca (Chenopodium album): 0 (0 is 0 to 20% damage) | damage to test plants, Ct (Cotton [14]): 0 (0 is 0 to 20% damage) | damage to test plants, Sn (Senecio vulgaris [15]): 1 | damage to test plants, Ww (Winter wheat [16]): 0 (0 is 0 to 20% damage)

COC(=O)C(C)Oc1ccc(N(C)c2ccc(Cl)cc2)cc1 (stereo not drawn) [Compound 13, Methyl 2-[4-(4-chloro-N-methylanilino)phenoxy]-propionate]
damage to plants, Rg (Ryegrass [17]; 1 kg/ha): 1 | damage to plants, Rg (Ryegrass [17]; 5 kg/ha): 3 (3 represents 75 to 99% kill) | damage to plants, Ip (Ipomea [18]; 1 kg/ha): 0 (0 represents 0 to 25% damage) | damage to plants, Ip (Ipomea [18]; 5 kg/ha): 0 (0 represents 0 to 25% damage) | damage to plants, Jm (Japanese millet [19]; 1 kg/ha): 3 (3 represents 75 to 99% kill) | damage to plants, Jm (Japanese millet [19]; 5 kg/ha): 3 (3 represents 75 to 99% kill) | damage to plants, Ot (Wild Oats [20]; 1 kg/ha): 0 (0 represents 0 to 25% damage) | damage to plants, Ot (Wild Oats [20]; 5 kg/ha): 0 (0 represents 0 to 25% damage) | damage to plants, Ms (Mustard [21]; 1 kg/ha): 0 (0 represents 0 to 25% damage) | damage to plants, Ms (Mustard [21]; 5 kg/ha): 0 (0 represents 0 to 25% damage) | damage to plants, Sf (Sunflower [22]; 1 kg/ha): 0 (0 represents 0 to 25% damage) | damage to plants, Sf (Sunflower [22]; 5 kg/ha): 0 (0 represents 0 to 25% damage) | damage to plants, Rg (Ryegrass [23]; 1 kg/ha): 0 (0 represents from 0 to 25% damage) | damage to plants, Rg (Ryegrass [23]; 5 kg/ha): 1 | damage to plants, Wh (Wheat [24]; 1 kg/ha): 0 (0 represents from 0 to 25% damage) | damage to plants, Wh (Wheat [24]; 5 kg/ha): 0 (0 represents from 0 to 25% damage) | damage to plants, Wh (Wheat [25]; 1 kg/ha): 0 (0 represents 0 to 25% damage) | damage to plants, Wh (Wheat [25]; 5 kg/ha): 0 (0 represents 0 to 25% damage) | damage to plants, Ip (Ipomea [26]; 1 kg/ha): 0 (0 represents from 0 to 25% damage) | damage to plants, Ip (Ipomea [26]; 5 kg/ha): 0 (0 represents from 0 to 25% damage) | damage to plants, Jm (Japanese millet [27]; 1 kg/ha): 0 (0 represents from 0 to 25% damage) | damage to plants, Jm (Japanese millet [27]; 5 kg/ha): 0 (0 represents from 0 to 25% damage) | damage to plants, Ot (Wild Oats [28]; 1 kg/ha): 0 (0 represents from 0 to 25% damage) | damage to plants, Ot (Wild Oats [28]; 5 kg/ha): 0 (0 represents from 0 to 25% damage) | damage to plants, Ms (Mustard [29]; 1 kg/ha): 0 (0 represents from 0 to 25% damage) | damage to plants, Ms (Mustard [29]; 5 kg/ha): 0 (0 represents from 0 to 25% damage) | damage to plants, Sf (Sunflower [30]; 1 kg/ha): 0 (0 represents from 0 to 25% damage) | damage to plants, Sf (Sunflower [30]; 5 kg/ha): 0 (0 represents from 0 to 25% damage)
